Assay results from US6987092B1, “Indigoid bisindole derivatives” (Faustus Forschungs Cie. Translational Cancer Research GmbH, priority 1999, dated 2006).

Key:
Assay type in all cases: cell-based
LXFL-529L cells = assay: Cellular uptake by LXFL-529L cells; conditions: 2 hours; for distribution particular: cellular organelles
Protocol: The amounts of the substances which were taken up by the cells are given depending on the concentration of the substance within the incubation medium. The time of incubation was 2 hours in all of the experiments. Furthermore, distribution between cytosol and the cellular organelles (particular) was measured and is given in the last two columns of Table 3.

[1] = tested on: cells of the large-cell lung carcinoma of the tumor line LXFL-529L; assay: Tumor cell growth inhibition, SRB-assay, LXFL-529L; conditions: 50% growth inhibition, three days incubation in serum-containing medium
[2] = tested on: cells of the mammary carcinoma cell line MCF-7; assay: Tumor cell growth inhibition, SRB-assay, MCF-7; conditions: 50% growth inhibition, three days incubation in serum-containing medium
[3] = concentration of incubation 10 μM
[4] = concentration of incubation 20 μM

Row | Compound | distribution particular (LXFL-529L cells; [3]) [%] | distribution particular (LXFL-529L cells; [4]) [%] | amount taken up (LXFL-529L cells; [3]) [μg/mg protein] | distribution cytosol (LXFL-529L cells; [3]) [%] | amount taken up (LXFL-529L cells; [4]) [μg/mg protein] | distribution cytosol (LXFL-529L cells; [4]) [%] | IC50 [1] [µM] | IC50 [2] [µM]
1 | 3-{3′-[iminooxy-O-(2-D-glucopyranosylethyl)]-(2′H3′H)indol-2′-ylidene}-(2H3H)indol-2-one [Example 48] | 87 ± 7 | 95 ± 6 | 0.20 ± 0.05 | 13 ± 3 | 0.25 ± 0.04 | 5 ± 1 | 21 ± 1.5 | 3.5 ± 0.6
2 | CN(C)C(=O)CON=C1C(=C2C(=O)Nc3ccccc32)Nc2ccccc21 [Example 43, N,N-dimethyl-2{O-[2′-(2-oxo-(2H3H)indol-3-ylidene)-(2′H3′H)indol-3′-ylidene]-aminooxy}-acetamide] |  |  |  |  |  |  | 7 ± 1.1 | 9.2 ± 0.9
3 | O=C1Nc2ccccc2C1=C1Nc2ccccc2C1=NOCCN[C@H]1C(O)O[C@H](CO)[C@@H](O)[C@@H]1O (stereo partly shown) [Example 56, 3-{3′-[iminooxy-O-(N-(2-deoxy-glucose)-2-amino-ethyl)]-(2′H3′H)indol-2′-ylidene}-(2H3H)indol-2-one] |  |  |  |  |  |  | 12 ± 1.3 | 14 ± 1.2
4 | O=C1Nc2ccccc2C1=C1Nc2ccccc2C1=NOCCNCCO [Example 59, 3-{3′-[iminooxy-O-(N-hydroxyethyl-2-amino-ethyl)]-(2′H3′H)indol-2′-ylidene}-(2H3H)indol-2-one] |  |  |  |  |  |  | 11.6 ± 0.8 | 13.6 ± 1.2
5 | O=C1Nc2ccccc2C1=C1Nc2ccccc2C1=NOCCCCCCCCCCN(CCO)CCO [Example 62] |  |  |  |  |  |  | 14 ± 1 | 13.5 ± 1.3
6 | O=C1Nc2ccccc2C1=C1Nc2ccccc2C1=NOCCN1CCNCC1 [Example 63, 3-{3′-[iminooxy-O-(2-(piperazin-1-yl)-ethyl)]-(2′H3′H)indol-2′-ylidene}-(2H3H)indol-2-one] |  |  |  |  |  |  | 8 ± 0.6 | 9.5 ± 0.8
7 | O=C1Nc2ccccc2C1=C1Nc2ccccc2C1=NOCCN1CCOCC1 [Example 64, 3-{3′-[iminooxy-O-(2-(morpholin-4-yl)-ethyl)]-(2′H3′)indol-2′-ylidene}-(2H3H)indol-2-one] |  |  |  |  |  |  | 10 ± 0.6 | 9 ± 1.2

The remaining compounds from weak to strong by IC50 [1], led by results:

Row | distribution particular (LXFL-529L cells; [3]) [%] | distribution particular (LXFL-529L cells; [4]) [%] | amount taken up (LXFL-529L cells; [3]) [μg/mg protein] | distribution cytosol (LXFL-529L cells; [3]) [%] | amount taken up (LXFL-529L cells; [4]) [μg/mg protein] | distribution cytosol (LXFL-529L cells; [4]) [%] | IC50 [1] [µM] | IC50 [2] [µM] | Compound
8 | 90 ± 6 | 95 ± 3 | 0.20 ± 0.05 | 10 ± 2 | 0.22 ± 0.07 | 5 ± 2 | 7 ± 0.2 | 7 ± 0.2 | CCc1ccc2c(c1)/C(=C1/Nc3ccccc3C1=O)C(=O)N2 [Example 2, 5-ethyl-indirubin]
9 |  |  |  |  |  |  | 5 ± 0.9 | 6.5 ± 1.1 | CN(C)CCON=C1C(=C2C(=O)Nc3ccccc32)Nc2ccccc21 [Example 58, 3-{3′-[iminooxy-O-((N,N)-dimethyl-2-amino-ethyl)]-(2′H3′H)indol-2′-ylidene}-(2H3H)indol-2-one]
10 |  |  |  |  |  |  | 4.5 ± 0.8 | 3 ± 0.9 | indirubin-5-sulfonic acid-(morpholin-4-yl-amide) [Example 23]
11 |  |  |  |  |  |  | 3 ± 0.6 | 3 ± 0.8 | O=C1Nc2ccccc2C1=C1Nc2ccccc2C1=NOCCNC[C@H](O)[C@@H](O)[C@H](O)[C@H](O)CO [Example 55, 3-{3′-[iminooxy-O-(N-(1-deoxy-glucitol)-2-amino-ethyl)]-(2′H3′H)indol-2′-ylidene}-(2H3H)indol-2-one]
12 |  |  |  |  |  |  | 3 ± 0.4 | 4.5 ± 0.5 | O=C1Nc2ccccc2C1=C1Nc2ccccc2C1=NOCCN(CCO)CCO [Example 60, 3-{3′-[iminooxy-O-((N,N)-bis(hydroxyethyl)-2-amino-ethyl)]-(2′H3′H)indol-2′-ylidene}-(2H3H)indol-2-one]
13 |  |  |  |  |  |  | 2 ± 0.3 | 6 ± 0.5 | NC(=O)CON=C1C(=C2C(=O)Nc3ccccc32)Nc2ccccc21 [Example 42, 2-{O-[2′-(2-oxo-(2H3H)indol-3-ylidene)-(2′H3′H)indol-3′-ylidene]-aminooxy}-acetamide]
14 |  |  |  |  |  |  | 1 ± 0.5 | 1.5 ± 0.6 | Cc1ccc2c(c1)C(=C1Nc3ccccc3C1=NOCCO)C(=O)N2 [Example 67, 3-[3′-[iminooxy-O-(2-hydroxy-ethyl)]-(2H′3H′)indol-2′-ylidene]-5-methyl-(2H3H)indol-2-one]
